Source: paper PMC6305410, “High-Throughput Screening for Bacterial Glycosyltransferase Inhibitors” (Frontiers in Cellular and Infection Microbiology, 2018)

Biological target: T1, NleB1 (Escherichia coli, UniProt Q8XBX8)
T1 construct: GST-EHEC-NleB1 in pET42a (GST/His tagged), expressed in E. coli BL21 (DE3), nickel purified; some tag cleavage noted
Conditions: inhibitor; for % NleB1 inhibition (µM compound) / 10: 10 µM; for % NleB1 inhibition (µM compound) / 20: 20 µM; for % NleB1 inhibition (µM compound) / 40: 40 µM; for % NleB1 inhibition (µM compound) / 80: 80 µM; for % NleB1 inhibition (µM compound) / 160: 160 µM

| SMILES | % NleB1 inhibition (µM compound) / 10 | % NleB1 inhibition (µM compound) / 20 | % NleB1 inhibition (µM compound) / 40 | % NleB1 inhibition (µM compound) / 80 | % NleB1 inhibition (µM compound) / 160 |
| --- | --- | --- | --- | --- | --- |
| C[C@H]1CC[C@]2(CCC(=O)N2CCCOC(=O)c2ccccc2)CC1 [KUC110967N] | 45.2% | 53.8% | 62.0% | 71.4% | 78.5% |
| Cc1ccc([C@H]2CC[C@]3(CCC(=O)N3CCOC(=O)Nc3cccc(C#N)c3)CC2)cc1 [KUC111012N] | 17.3% | 25.1% | 22.4% | 20.7% | 20.5% |
| C[C@@H]1CCCN1c1ccc2c(c1)O[C@@H]1CCN(C1)S2(=O)=O [KUC111139N] | 32.7% | 34.1% | 35.7% | 38.7% | 40.7% |
| O=C(c1ccc(F)cc1)N1CCCC2(CC(c3cccc(Cl)c3)=CO2)C1 (stereo not drawn) [KUC111570N] | 3.2% | 3.8% | 5.2% | 24.2% | 42.6% |
| CCC[C@H]1[C@@H](OC(=O)NCc2ccc(OC)cc2)CC[C@@]23CCCN2C(=O)CCC[C@@H]13 [KUC112136N] | 15.7% | 22.0% | 20.8% | 28.5% | 30.5% |
| O=C(Oc1ccc([N+](=O)[O-])cc1)O[C@H]1CC[C@@]23CCCN2C(=O)CCC[C@H]3[C@H]1Cc1ccccc1 [KUC112275N] | 2.6% | 5.6% | 11.0% | 24.2% | 34.9% |
